Patent US8158634B2, “Compounds and compositions as inhibitors of cannabinoid receptor 1 activity” (IRM LLC, priority 2004, dated 2012)

Target: T1, human cannabinoid receptor 2 (CB2) (Homo sapiens, UniProt P34972)
T1 construct: expressed in transfected cells
Assay: CB2 in vitro assays on CHO cell membranes ([3H]-CP55940 ligand binding / GTPγS binding), Ki by Cheng-Prusoff
Conditions: membranes of CHO cells stably expressing human CB2; EC50 converted by Cheng-Prusoff
Procedure: Homogenized membranes are prepared from CHO cell clones stably expressing a human cannabinoid receptor 1 (CB1) or human cannabinoid receptor 2 (CB2). Cells are grown and scrapped from 15 cm tissue culture plates, and then subsequently centrifuged down. Cells are washed once with cold PBS, and resuspended in <20 ml of Buffer A (20 mM HEPES, pH 7.4, 10 mM EDTA, EDTA-free complete protease inhibitor cocktail [1 tablet/25 ml]). The cell suspension is homogenized on ice, using a Polytron homogenizer at 25000 rpm at three intervals of 15 seconds each. The homogenate is first centrifuged at 2000 rpm on a tabletop low speed centrifuge for 10 minutes. The supernatant, after passing through a cell strainer, is then centrifuged at 50,000×g for 25 minutes at 4° C. The pellet is resuspended into buffer B (15% glycerol, 20 mM HEPES, pH 7.4, 0.1 mM EDTA, EDTA-free complete protease inhibitor cocktail [1 tablet/10 ml]). Protein concentration of the prep is determined using the BCA Protein Assay kit using BSA as standard. The membranes are aliquoted and kept frozen at −80° C.
[^3H]-CP55940 ligand binding assay: Solutions of test compounds ranging from 100 μM to 0.01 nM are prepared in DMSO. The desired amount of membrane prep is diluted with ice-cold assay buffer (50 mM Tris-HCl, 2.5 mM EDTA, 5 mM MgCl2, 0.05% BSA, pH 7.4) and vortexed well. […]

T1 sequence (P34972 whole entry): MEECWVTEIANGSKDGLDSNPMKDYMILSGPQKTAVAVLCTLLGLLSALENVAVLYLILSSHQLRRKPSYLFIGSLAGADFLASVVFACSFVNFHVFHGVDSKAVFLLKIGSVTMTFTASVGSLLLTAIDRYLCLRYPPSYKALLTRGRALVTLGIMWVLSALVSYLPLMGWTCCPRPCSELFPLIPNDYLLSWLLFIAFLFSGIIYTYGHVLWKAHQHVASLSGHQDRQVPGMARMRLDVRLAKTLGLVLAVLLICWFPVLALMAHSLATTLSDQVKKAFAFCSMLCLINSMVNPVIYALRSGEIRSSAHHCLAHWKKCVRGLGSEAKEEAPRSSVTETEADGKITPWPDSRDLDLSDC

Ki: > 5 µM
SMILES: O=c1c2cnn(-c3ccccc3)c2nc(-c2ccccc2F)n1-c1ccc(Br)cc1 [Compound 19, 5-(4-Bromo-phenyl)-6-(2-fluoro-phenyl)-1-phenyl-1,5-dihydro-pyrazolo[3,4-d]pyrimidin-4-one]
